Data taken from patent US8957026B2, “Beta-catenin targeting peptides and uses thereof” (President and Fellows of Harvard College, priority 2010, dated 2015).
Entries after “also recorded” stand apart in the source; their conditions may differ. Positions of bridges follow the written chain, without caps; N, C: chain ends. Non-standard residues stand in square brackets, D forms with d. Residues, ends and D or L forms follow the SMILES beside them. *: point of attachment. FITC = O=C1OC2(c3ccc(O)cc3Oc3cc(O)ccc32)c2ccc(NC(=S)*)cc21; S5 = C=CCCC[C@](C)(N)C(=O)O; βAla = NCCC(=O)O

Legend:
[1] = system: SW480 cells; experiment: Cell penetration assay monitoring fluorescence of FITC-labeled peptides; assay type: cell-based; conditions: 10 μM peptide in 10% serum, 24 h, confocal microscope
Method: Besides its affinity to β-catenin it is cell permeability that impacts the capability of a peptide to interfere with the intracellular target. Therefore, the ability to penetrate cells was tested by monitoring fluorescence of the fluorescein(FITC)-labeled peptides.

[2] = Circular dichroism spectra with calculated helicities; assay type: physicochemical
Source text: Based on the crystal structure of the Axin/β-catenin complex there are four residues (yellow, FIG. 5a) that are not involved in β-catenin binding[15] and should be suitable for modification without affecting binding. Taking into consideration that only i,i+4 (one helix turn) and i,i+7 5 (two helix turns) positioning of modified residues allows sufficient cross-linking[8] three hydrocarbon stapled sequences (STAX-1, 2 and 3, FIG. 5b) were designed. Circular dichroism spectra of the fluorescently labeled peptides were recorded allowing the calculation of helicities (FIG. 5c). […] Therefore, STAX-3 was chosen as starting point for further optimizations.

[3] = target: T1, N-terminally GST-tagged human β-catenin (Homo sapiens, UniProt P35222); experiment: Fluorescence polarization assay with FITC-labeled peptides and GST-tagged β-catenin; assay type: binding; conditions: for increase in binding affinity to β-catenin compared to the wild type sequence (ax-WT): versus Axin wild type peptide
T1 sequence (P35222 1-781): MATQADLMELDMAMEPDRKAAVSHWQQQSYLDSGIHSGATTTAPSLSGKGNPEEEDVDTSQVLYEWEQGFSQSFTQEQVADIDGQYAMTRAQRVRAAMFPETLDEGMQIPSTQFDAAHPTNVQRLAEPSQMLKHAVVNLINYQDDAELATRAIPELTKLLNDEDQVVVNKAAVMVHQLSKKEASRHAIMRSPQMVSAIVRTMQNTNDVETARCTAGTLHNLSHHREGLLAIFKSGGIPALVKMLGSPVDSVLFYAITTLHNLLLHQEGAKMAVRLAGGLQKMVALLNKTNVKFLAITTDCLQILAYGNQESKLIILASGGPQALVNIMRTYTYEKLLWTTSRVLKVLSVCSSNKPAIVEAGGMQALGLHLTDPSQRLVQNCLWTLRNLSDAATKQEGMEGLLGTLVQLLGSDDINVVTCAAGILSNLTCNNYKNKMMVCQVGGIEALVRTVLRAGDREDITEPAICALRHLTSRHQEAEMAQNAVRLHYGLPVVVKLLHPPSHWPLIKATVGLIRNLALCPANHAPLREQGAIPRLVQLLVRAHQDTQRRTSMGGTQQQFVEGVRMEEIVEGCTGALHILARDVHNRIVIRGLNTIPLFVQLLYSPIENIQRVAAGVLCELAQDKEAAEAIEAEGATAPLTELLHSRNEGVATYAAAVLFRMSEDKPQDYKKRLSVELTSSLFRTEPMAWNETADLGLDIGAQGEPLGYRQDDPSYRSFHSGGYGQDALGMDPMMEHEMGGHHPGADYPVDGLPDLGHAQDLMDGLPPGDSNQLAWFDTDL
Source text: FIG. 4 depicts (a) superimposed crystal structures of TCF4 (PDB ID: 2GL7)[14] and Axin (PDB ID: 1QZ7)[15] bound to β-catenin; (b) sequences of modified peptides with NCBI accession and covered amino acids (* amino acids 29-37 were replaced by two βAla); (c) fluorescence polarization assays using FITC-labeled peptides and N-terminally GST-tagged human β-catenin (with corresponding Kds).
FIG. 7 depicts (a) fluorescently labeled peptide sequences resulting from phage display affinity optimization (entries 1, 4 and 17/18 in FIG. 6b); (b) fluorescence polarization assay with fluorescently labeled peptides and N-terminally GST-tagged human β-catenin (with corresponding Kds).
Peptide sequences derived from TCF4 and Axin were synthesized and fluorescently labeled (FIG. 4b) and the affinity of both binding domains to β-catenin was assessed. […] Therefore, the Axin derivative was considered to be the most promising candidate for the hydrocarbon stapling approach. It combines a relatively short and helical peptide sequence (15 amino acids) with moderate binding of β-catenin (Kd of ˜5 μM).

[4] = system: Wnt-dependent luciferase reporter; experiment: Dual-luciferase Wnt-dependent reporter gene assay; assay type: cell-based; conditions: firefly signal normalized to Renilla luciferase control
Method: FIG. 10 depicts (a) stapled peptide sequences with corresponding Kd to β-catenin (blue boxes mark mutations meant to disrupt binding to (β-catenin, charges at pH 7.5 are calculated values); (b) inhibition of a Wnt-dependent luciferase reporter (dual-luciferase assay: signal was normalized to Renilla luciferase control); (c) dose-dependent effect of STAX-147 and STAX-160 in the dual-luciferase assay.
The cell penetrating stapled peptides were tested for their effects on transcriptional activity using an established reporter gene assay. In this dual-luciferase assay firefly luciferase is transcriptionally regulated by constitutively activated Wnt signaling. The firefly signal is normalized to the Renilla luciferase control.

helicity ([2]; calculated from circular dichroism spectra of the fluorescently labeled peptide) | change of helicity (in words) ([2]; compared to the wild type sequence (ax-WT)) | increase in helicity compared to the wild type sequence (ax-WT) ([2]; versus ax-WT) | change of affinity to β-catenin (in words) ([3]; compared to wild type or parent peptide) | effect on Wnt-dependent luciferase reporter activity [4] | increase in binding affinity to β-catenin upon sequence modification ([3]; versus the preceding stapled peptide of the optimization series) | SMILES | cell permeability [1] | increase in binding affinity to β-catenin compared to the wild type sequence (ax-WT) [3]
51% | increased | 3.4 fold | increased | – | – | CC[C@H](C)[C@@H]1NC(=O)[C@@](C)(NC(=O)[C@H](CCC(=O)O)NC(=O)[C@@H]2CCCN2C(=O)[C@H](CC(N)=O)NC(=O)[C@H](CCC(=O)O)NC(=O)CCNC(=S)Nc2ccc3c(c2)C(=O)OC32c3ccc(O)cc3Oc3cc(O)ccc32)CCCC=CCCC[C@@](C)(C(=O)N[C@@H](Cc2c[nH]cn2)C(=O)N[C@H](C(=O)N[C@@H](CCC(N)=O)C(=O)N[C@@H](CCCNC(=N)N)C(=O)N[C@H](C(=O)N[C@@H](CCSC)C(N)=O)C(C)C)C(C)C)NC(=O)[C@H](CC(=O)O)NC(=O)[C@H](CC(C)C)NC1=O [STAX-3] ({FITC-βAla}-ENPE[S5]ILD[S5]HVQRVM-NH2; staple 5-9) | non cell permeable | 80 fold
– | – | – | – | repression of luciferase activity | two fold increase | CC[C@H](C)[C@@H]1NC(=O)[C@@](C)(NC(=O)[C@H](CCC(N)=O)NC(=O)[C@@H]2CCCN2C(=O)[C@H](Cc2c[nH]c3ccccc23)NC(=O)[C@H](CCCNC(=N)N)NC(=O)COCCOCCNC(=S)Nc2ccc3c(c2)C(=O)OC32c3ccc(O)cc3Oc3cc(O)ccc32)CCCC=CCCC[C@@](C)(C(=O)N[C@@H](Cc2c[nH]cn2)C(=O)N[C@H](C(=O)N[C@@H](CCCNC(=N)N)C(=O)N[C@@H](CCCNC(=N)N)C(=O)N[C@H](C(=O)N[C@@H](Cc2c[nH]c3ccccc23)C(=O)N[C@@H](CCCNC(=N)N)C(N)=O)C(C)C)C(C)C)NC(=O)[C@H](CC(=O)O)NC(=O)[C@H](CC(C)C)NC1=O [STAX-090] | increased further; also recorded: good permeability | more than 600 fold
– | – | – | – | – | – | CC[C@H](C)[C@H](NC(=O)[C@H](CO)NC(=O)[C@H](CCC(=O)O)NC(=O)[C@@H]1CCCN1C(=O)[C@H](CC(N)=O)NC(=O)[C@H](CCC(=O)O)NC(=O)CCNC(=S)Nc1ccc2c(c1)C(=O)OC21c2ccc(O)cc2Oc2cc(O)ccc21)C(=O)N[C@@H](CC(C)C)C(=O)N[C@@H](CC(=O)O)C(=O)N[C@@H](CCC(=O)O)C(=O)N[C@@H](Cc1c[nH]cn1)C(=O)N[C@H](C(=O)N[C@@H](CCC(N)=O)C(=O)N[C@@H](CCCNC(=N)N)C(=O)N[C@H](C(=O)N[C@@H](Cc1c[nH]c2ccccc12)C(=O)N[C@@H](CCCNC(=N)N)C(N)=O)C(C)C)C(C)C [phage-17/18] ({FITC-βAla}-ENPESILDEHVQRVWR-NH2) | – | 8 fold
– | – | – | – | – | – | CC[C@H](C)[C@H](NC(=O)[C@H](CO)NC(=O)[C@H](CCC(=O)O)NC(=O)[C@@H]1CCCN1C(=O)[C@H](Cc1c[nH]c2ccccc12)NC(=O)[C@H](CCCNC(=N)N)NC(=O)CCNC(=S)Nc1ccc2c(c1)C(=O)OC21c2ccc(O)cc2Oc2cc(O)ccc21)C(=O)N[C@@H](CC(C)C)C(=O)N[C@@H](CC(=O)O)C(=O)N[C@@H](CCC(=O)O)C(=O)N[C@@H](Cc1c[nH]cn1)C(=O)N[C@@H](Cc1c[nH]c2ccccc12)C(=O)N[C@@H](CCC(=O)O)C(=O)N[C@@H](CCCNC(=N)N)C(=O)N[C@H](C(=O)N[C@@H](CCSC)C(=O)N[C@@H](CCCNC(=N)N)C(N)=O)C(C)C [phage-01] ({FITC-βAla}-RWPESILDEHWERVMR-NH2) | – | 39 fold
